In patent US3932383A, “9-Dihydroniddamycin A compounds and related 3-(O)-esters and the process for their preparation” (Abbott Laboratories, priority 1974, dated 1976):
Converted amounts (≈) assume the structure as drawn.

Columns and labels:
Assay type in all cases: cell-based
[1] = tested on: Mycoplasma pneumoniae FH; assay: two-fold tube dilution test; conditions: 144 h, PPLO broth, 6 days at 37° C., read-out: Minimum Inhibitory Concentration
Experimental: (§1) Three niddamycin and two dihydroniddamycin compounds were tested for their activity against Streptococcus pyogenes C203, Diplococcus pneumoniae 6301 and Mycoplasma pneumoniae FH.
(§2) A standard two-fold tube dilution test was used. The medium and inoculum were varied with each culture.
In the test for activity against Mycoplasma pneumoniae FH, 4.5 ml. portions of PPLO broth were used with 0.5 ml. of a 1:100 dilution culture. the test was incubated for 6 days at 37° C.

[2] = tested on: Streptococcus pyogenes C203; assay: two-fold tube dilution test; conditions: brain-heart infusion broth, 24 hours at 37° C., read-out: Minimum Inhibitory Concentration
Experimental: as §1, §2
In the test for activity against Streptococcus pyrogenes C203, 5 ml. portions of brain-heart infusion broth were used with 0.1 ml. of a 1:100 dilution culture. The test was incubated for 24 hours at 37° C.

[3] = tested on: Streptococcus pyogenes Roper; assay: agar two-fold dilution test; conditions: 37° C., read-out: Minimum Inhibitory Concentration
Experimental: (§3) Two niddamycin derivatives were tested for their activity against 21 organisms.
(§4) An agar dilution two-fold dilution test was used for the first 14 bacterial organisms, while the remaining seven were tested by means of a two-fold tube dilution method. The incubation for all the tests was carried out at 37° C.
(§5) The niddamycin base compound (M-188 ) was used as the control compound.

[4] = tested on: Escherichia coli Juhl; assay: agar two-fold dilution test; conditions: 37° C., read-out: Minimum Inhibitory Concentration
Experimental: as §3, §4, §5

[5] = tested on: Salmonella typhimurium Ed No. 9; assay: agar two-fold dilution test; conditions: Salmonella enterica, 37° C., read-out: Minimum Inhibitory Concentration
Experimental: as §3, §4, §5

[6] = tested on: Proteus mirabilis Finland No. 9; assay: agar two-fold dilution test; conditions: 37° C., read-out: Minimum Inhibitory Concentration
Experimental: as §3, §4, §5

[7] = tested on: Staphylococcus aureus Smith; assay: agar two-fold dilution test; conditions: 37° C., read-out: Minimum Inhibitory Concentration
Experimental: as §3, §4, §5

[8] = tested on: Klebsiella pneumoniae 10031; assay: agar two-fold dilution test; conditions: 37° C., read-out: Minimum Inhibitory Concentration
Experimental: as §3, §4, §5

[9] = tested on: Shigella sonnei 9290; assay: agar two-fold dilution test; conditions: 37° C., read-out: Minimum Inhibitory Concentration
Experimental: as §3, §4, §5

[10] = tested on: Streptococcus faecalis 10541; assay: agar two-fold dilution test; conditions: Enterococcus faecalis, 37° C., read-out: Minimum Inhibitory Concentration
Experimental: as §3, §4, §5

[11] = tested on: Staphylococcus aureus Smith ER; assay: agar two-fold dilution test; conditions: read-out: Minimum Inhibitory Concentration
Experimental: as §3, §4, §5

[12] = tested on: Pseudomonas aeruginosa BMH No. 10; assay: agar two-fold dilution test; conditions: BMHNO.10, 37° C., read-out: Minimum Inhibitory Concentration
Experimental: as §3, §4, §5

[13] = tested on: Staphylococcus aureus 9144; assay: agar two-fold dilution test; conditions: 37° C., read-out: Minimum Inhibitory Concentration
Experimental: as §3, §4, §5

[14] = tested on: Pasteurella multocida 10544; assay: agar two-fold dilution test; conditions: 37° C., read-out: Minimum Inhibitory Concentration
Experimental: as §3, §4, §5

[15] = tested on: Staphylococcus aureus Wise 155; assay: agar two-fold dilution test; conditions: WISE155, 37° C., read-out: Minimum Inhibitory Concentration
Experimental: as §3, §4, §5

[16] = tested on: Proteus vulgaris Abbott JJ; assay: agar two-fold dilution test; conditions: 37° C., read-out: Minimum Inhibitory Concentration
Experimental: as §3, §4, §5

[17] = tested on: F. oxysporum; assay: standard FG (fungi) screening program; conditions: Fusarium oxysporum, read-out: Minimum Inhibitory Concentration
Experimental: (§6) The samples were also tested on the standard FG (fungi) screening program.
as §5

[18] = tested on: Alternaria label isolate; assay: standard FG (fungi) screening program; conditions: read-out: Minimum Inhibitory Concentration
Experimental: as §6, §5

[19] = tested on: M. verrucaria; assay: standard FG (fungi) screening program; conditions: read-out: Minimum Inhibitory Concentration
Experimental: as §6, §5

[20] = tested on: A. versicolor; assay: standard FG (fungi) screening program; conditions: Aspergillus versicolor, read-out: Minimum Inhibitory Concentration
Experimental: as §6, §5

[21] = tested on: C. globosum; assay: standard FG (fungi) screening program; conditions: Chaetomium globosum, read-out: Minimum Inhibitory Concentration
Experimental: as §6, §5

[22] = tested on: Rhizopus nigricans; assay: standard FG (fungi) screening program; conditions: Rhizopus stolonifer, read-out: Minimum Inhibitory Concentration
Experimental: as §6, §5

[23] = tested on: P. citrinum; assay: standard FG (fungi) screening program; conditions: Penicillium citrinum, read-out: Minimum Inhibitory Concentration
Experimental: as §6, §5

[24] = tested on: Mycoplasma gallispeticum S6; assay: two-fold tube dilution method; conditions: 37° C., read-out: Minimum Inhibitory Concentration
Experimental: as §3, §4, §5

[25] = tested on: Haemophilus influenzae 9334; assay: two-fold tube dilution method; conditions: 37° C., read-out: Minimum Inhibitory Concentration
Experimental: as §3, §4, §5

[26] = tested on: Mycoplasma granularum 19168; assay: two-fold tube dilution method; conditions: Acholeplasma granularum, 37° C., read-out: Minimum Inhibitory Concentration
Experimental: as §3, §4, §5

[27] = tested on: Mycoplasma hyorhinis 17981; assay: two-fold tube dilution method; conditions: 37° C., read-out: Minimum Inhibitory Concentration
Experimental: as §3, §4, §5

[28] = tested on: Trichomonas vaginalis C1M1; assay: two-fold tube dilution method; conditions: 37° C., read-out: Minimum Inhibitory Concentration
Experimental: as §3, §4, §5

[29] = tested on: Mycoplasma pneumoniae FH; assay: two-fold tube dilution method; conditions: 37° C. (Table 2), read-out: Minimum Inhibitory Concentration
Experimental: as §3, §4, §5

[30] = tested on: Crithidia fasciculata; assay: two-fold tube dilution method; conditions: 37° C., read-out: Minimum Inhibitory Concentration
Experimental: as §3, §4, §5

[31] = tested on: Diplococcus pneumoniae 6301; assay: two-fold tube dilution test; conditions: Streptococcus pneumoniae, brain-heart infusion broth and 20% horse serum, 24 hours at 37° C., read-out: Minimum Inhibitory Concentration
Experimental: as §1, §2
In the test for activity against Diplococcus pneumoniae 6301, 5 ml. portions of brain-heart infusion broth and 20% horse serum were used with 0.1 ml. of 1:100 dilution culture. The test was incubated for 24 hours at 37° C.

Structure (SMILES) | MIC [1] [µg/mL] | MIC [2] [µg/mL] | MIC [3] [µg/mL] | MIC [4] [µg/mL] | MIC [5] [µg/mL] | MIC [6] [µg/mL] | MIC [7] [µg/mL] | MIC [8] [µg/mL] | MIC [9] [µg/mL] | MIC [10] [µg/mL] | MIC [11] [µg/mL] | MIC [12] [µg/mL] | MIC [13] [µg/mL] | MIC [14] [µg/mL] | MIC [15] [µg/mL] | MIC [16] [µg/mL] | MIC [17] [µg/mL] | MIC [18] [µg/mL] | MIC [19] [µg/mL] | MIC [20] [µg/mL] | further results
COC1C(O)CC(=O)OC(C)CC=CC=CC(=O)C(C)CC(CC=O)C1OC1OC(C)C(OC2CC(C)(O)C(OC(=O)CC(C)C)C(C)O2)C(N(C)C)C1O (stereo not drawn) [Niddamycin Base, niddamycin] |  |  | > 100 | > 100 | > 100 | > 100 | 0.39 (≈ 0.497 µM) | 12.5 (≈ 15.9 µM) | > 100 | 0.78 (≈ 0.995 µM) | > 100 | > 100 | 0.39 (≈ 0.497 µM) | 12.5 (≈ 15.9 µM) | 0.78 (≈ 0.995 µM) | > 100 | > 100 | > 100 | > 100 | > 100 | MIC [21]: > 100 µg/mL; MIC [22]: > 100 µg/mL; MIC [23]: > 100 µg/mL; MIC [24]: 0.1 µg/mL (≈ 0.128 µM); MIC [25]: 3.1 µg/mL (≈ 3.95 µM); MIC [26]: 1 µg/mL (≈ 1.28 µM); MIC [27]: 0.25 µg/mL (≈ 0.319 µM); MIC [28]: > 100 µg/mL; MIC [29]: 10 µg/mL (≈ 12.8 µM); MIC [30]: > 100 µg/mL
COC1C(O)CC(=O)OC(C)CC=CC=CC(O)C(C)CC(CC=O)C1OC1OC(C)C(OC2CC(C)(O)C(OC(=O)CC(C)C)C(C)O2)C(N(C)C)C1O (single isomer, unassigned) [Compound 5, 9-Dihydroniddamycin A] |  |  | > 100 | > 100 | > 100 | > 100 | 0.78 (≈ 0.992 µM) | 12.5 (≈ 15.9 µM) | > 100 | 0.78 (≈ 0.992 µM) | > 100 | > 100 | 0.78 (≈ 0.992 µM) | 12.5 (≈ 15.9 µM) | 1.56 (≈ 1.98 µM) | > 100 | > 100 | > 100 | > 100 | > 100 | MIC [21]: > 100 µg/mL; MIC [22]: > 100 µg/mL; MIC [23]: > 100 µg/mL; MIC [24]: 0.25 µg/mL (≈ 0.318 µM); MIC [25]: 6.2 µg/mL (≈ 7.89 µM); MIC [26]: 2.5 µg/mL (≈ 3.18 µM); MIC [27]: 0.25 µg/mL (≈ 0.318 µM); MIC [28]: > 100 µg/mL; MIC [29]: 50 µg/mL (≈ 63.6 µM); MIC [30]: > 100 µg/mL
COC1C(OC(C)=O)CC(=O)OC(C)CC=CC=CC(O)C(C)CC(CC=O)C1OC1OC(C)C(OC2CC(C)(O)C(OC(=O)CC(C)C)C(C)O2)C(N(C)C)C1O (single isomer, unassigned) [Compound 8B, 3-(O)-Acetyl-9-Dihydroniddamycin A] |  |  | > 100 | > 100 | > 100 | > 100 | 0.78 (≈ 0.942 µM) | 25 (≈ 30.2 µM) | > 100 | 1.56 (≈ 1.88 µM) | > 100 | > 100 | 0.78 (≈ 0.942 µM) | 12.5 (≈ 15.1 µM) | 1.56 (≈ 1.88 µM) | > 100 | > 100 | > 100 | > 100 | > 100 | MIC [21]: > 100 µg/mL; MIC [22]: > 100 µg/mL; MIC [23]: > 100 µg/mL; MIC [24]: 0.25 µg/mL (≈ 0.302 µM); MIC [25]: 6.2 µg/mL (≈ 7.49 µM); MIC [26]: 5 µg/mL (≈ 6.04 µM); MIC [27]: 0.5 µg/mL (≈ 0.604 µM); MIC [28]: > 100 µg/mL; MIC [29]: 25 µg/mL (≈ 30.2 µM); MIC [30]: > 100 µg/mL

Now from value to molecule, other results behind:

MIC [1] [µg/mL] | MIC [2] [µg/mL] | Structure (SMILES) | MIC [3] [µg/mL] | MIC [4] [µg/mL] | MIC [5] [µg/mL] | MIC [6] [µg/mL] | MIC [7] [µg/mL] | MIC [8] [µg/mL] | MIC [9] [µg/mL] | MIC [10] [µg/mL] | MIC [11] [µg/mL] | MIC [12] [µg/mL] | MIC [13] [µg/mL] | MIC [14] [µg/mL] | MIC [15] [µg/mL] | MIC [16] [µg/mL] | MIC [17] [µg/mL] | MIC [18] [µg/mL] | MIC [19] [µg/mL] | MIC [20] [µg/mL] | further results
50 (≈ 60.1 µM) | 25 (≈ 30 µM) | COC(CC1CC(C)C(O)C=CC=CCC(C)OC(=O)CC(O)C(OC)C1OC1OC(C)C(OC2CC(C)(O)C(OC(=O)CC(C)C)C(C)O2)C(N(C)C)C1O)OC (single isomer, unassigned) [Compound 3, 9-Dihydroniddamycin A dimethyl acetal] |  |  |  |  |  |  |  |  |  |  |  |  |  |  |  |  |  |  | 
> 100 | > 100 | COC(CC1CC(C)C(=O)C=CC=CCC(C)OC(=O)CC(OC(C)=O)C(OC)C1OC1OC(C)C(OC2CC(C)(O)C(OC(=O)CC(C)C)C(C)O2)C(N(C)C)C1OC(C)=O)OC (stereo not drawn) [Compound 4B, 2',3-Di-(O)-acetylniddamycin dimethyl acetal] |  |  |  |  |  |  |  |  |  |  |  |  |  |  |  |  |  |  | MIC [31]: > 100 µg/mL
25 (≈ 30.1 µM) | 0.78 (≈ 0.94 µM) | COC(CC1CC(C)C(=O)C=CC=CCC(C)OC(=O)CC(O)C(OC)C1OC1OC(C)C(OC2CC(C)(O)C(OC(=O)CC(C)C)C(C)O2)C(N(C)C)C1O)OC (stereo not drawn) [Compound 2, Niddamycin dimethyl acetal] |  |  |  |  |  |  |  |  |  |  |  |  |  |  |  |  |  |  | MIC [31]: ≤ 1.56 µg/mL
25 (≈ 28.7 µM) | 12.5 (≈ 14.3 µM) | COC(CC1CC(C)C(=O)C=CC=CCC(C)OC(=O)CC(OC(C)=O)C(OC)C1OC1OC(C)C(OC2CC(C)(O)C(OC(=O)CC(C)C)C(C)O2)C(N(C)C)C1O)OC (stereo not drawn) [Compound 6B, 3-(O)-Acetylniddamycin dimethyl acetal] |  |  |  |  |  |  |  |  |  |  |  |  |  |  |  |  |  |  | 
50 (≈ 57.2 µM) | 100 (≈ 114 µM) | COC(CC1CC(C)C(O)C=CC=CCC(C)OC(=O)CC(OC(C)=O)C(OC)C1OC1OC(C)C(OC2CC(C)(O)C(OC(=O)CC(C)C)C(C)O2)C(N(C)C)C1O)OC (single isomer, unassigned) [Compound 7B, 3-(O)-Acetyl-9-dihydroniddamycin A dimethyl acetal] |  |  |  |  |  |  |  |  |  |  |  |  |  |  |  |  |  |  | 
